Laboratory results from ChEMBL document CHEMBL4354793, “Current and emerging therapeutic targets of alzheimer's disease for the design of multi-target directed ligands” (Medchemcomm, 2019).

Tests used:
Format in all cases: functional
Rattus norvegicus [1] = assay: In vivo inhibition of AChE in po dosed rat brain relative to control
Oryctolagus cuniculus [2] = assay: In vivo inhibition of AChE in po dosed rabbit brain relative to control
Mus musculus [3] = assay: In vivo inhibition of MAO-B in po dosed mouse brain relative to control
Rattus norvegicus [4] = assay: In vivo inhibition of MAO-B in po dosed rat brain relative to control
Mus musculus [5] = assay: In vivo inhibition of AChE in po dosed mouse brain relative to control
Oryctolagus cuniculus [6] = assay: In vivo inhibition of MAO-B in po dosed rabbit brain relative to control

Measured: inhibition (INH)

C#CCN[C@@H]1CCc2ccc(OC(=O)N(C)CC)cc21 [LADOSTIGIL]
25 - 40%: Rattus norvegicus [1] | Oryctolagus cuniculus [2] | Mus musculus [5]
70 - 90%: Mus musculus [3] | Rattus norvegicus [4] | Oryctolagus cuniculus [6]
